What all share (assay type): cell-based
Assay [1] concerns porcine PGCs. In words: In vitro culture of porcine PGCs on STO feeder cells with apoptosis inhibitors; AP-stained colonies counted. The settings on record: for Effect on the number of PGCs, in words: single concentrations of Tables 6 and 7; for Normalized # of Colonies + SE: Table 7 antioxidants: NAC 1.0 mM, BHA 0.1 mM, BPN 1.0 mM, CIM 2.0 mM, normalized to control. From the text: Porcine fetuses were collected from hysterectomized uteri of four-way crossbred gilts (DeKalb, Ill.) between day 25 and 30 of pregnancy (estrus=day 0). Fetuses were washed in phosphate buffered saline supplemented with BSA (0.4%, Sigma St. Louis, Mo.) and penicillin/streptomycin (1%, Gibco BRL, Rockville, Md.) (PBS/BSA/PS). Urogenital ridges, appeared as longitudinal protrusions along the medial mesonephric surface, were isolated and washed in PBS/BSA/PS followed by several washes in PES medium before PGC collection. The PES medium was comprised of 50:50 mixture of Dulbecco's modified Eagle's medium (DMEM) and Ham's F10 medium supplemented with 15% fetal bovine serum (FBS), L-glutamine (2 mM), β-mercaptoethanol (0.1 mM), MEM non-essential amino acids (1%) and penicillin/streptomycin (1%). All media and supplements were purchased from Gibco BRL.
PGCs were isolated by incubation in 0.25% trypsin/1 mM EDTA solution (Gibco BRL) followed by gentle pipetting or by mechanical dissociation of ridges into small fragments followed by gentle pipetting. After tissue disruption, cells were centrifuged for 5 minutes at 250 rpm to remove tissue debris and clumps. The supernatant containing most the single cells was collected and centrifuged at 1000 rpm for 10 minutes.
PGCs were resuspended with PES medium containing cytokines, such as soluble recombinant human stem cell factor (SCF; 40 ng/ml), human basic fibroblast growth factor (bFGF; 20 ng/ml), and human leukemia inhibitory factor (LIF; 20 ng/ml). All cytokines were obtained from R&D Systems (Minneapolis, Minn.). Cell suspensions were plated on irradiated mouse STO feeder cells (3×10^6 cells per 35 mm well), prepared as previously described (Piedrahita et al., 1998) and cultured in humidified environment of 5% CO2 in air, 38° C. PGC-derived colonies with ES-like morphology after 7-10 days of culture are passaged to fresh feeders for establishment of cell lines. PGC-derived colonies were dissociated with 0.25% trypsin/1 mM EDTA (Gibco BRL) for 10 minutes. […] To identify PGC-derived cells and the state of differentiation were determined by morphology and by expression of alkaline phosphatase (AP).
AP activity was determined as described previously (Moore and Piedrahita, 1997). Briefly, culture plates were rinsed twice in PBS and fixed in 4% formaldehyde in PBS for 15 minutes at room temperature. Fixed cells were washed twice with PBS and stained in naphtol AS-MX phosphate (200 μg/ml; Sigma) and Fast Red TR salt (1 mg/ml; Sigma) in 100 mM Tris buffer, pH 8.2 for 30 minutes at room temperature. Staining was terminated by washing cultures in PBS. Specificity of AP activity was determined by staining in the presence of the AP inhibitor, tetramisole (500 μM; Sigma). Mouse ES cells also were stained as control for AP activity.
To determine the effect of apoptosis inhibitors on survival of porcine PGCs in vitro, freshly isolated PGCs were cultured as described above with or without apoptosis inhibitors, α2-macroglobulin (MAC: broad range protease inhibitor, 1.4 pM) and N-acetylcysteine (NAC: antioxidant, 1 mM). After 7-10 days of culture, colonies were stained for AP activity and counted. Studies were performed at least three replicates. The data were normalized to the treatment with no inhibitors added (control) and tested for homogeneity of variance and analyzed by ANOVA. Mean separation is accomplished by Fisher's protected LSD using software SuperANOVA (Abacus Concepts).
Dose titration of MAC (0.35, 0.7, 1.4, and 2.8 pM) and NAC (0.25, 0.5, 1.0, and 2.0 mM), to determine the optimal concentration of inhibitors, were performed.

The subject of assay [2] is porcine PGCs. Described as above. The settings on record: Table 6 protease inhibitors: MAC 0.7 pM, PA 50 μM, AEBSF 250 μM, TLCK 100 μM; normalized to control.
Assay [3] relates to Bovine embryonic fibroblasts (BEF). In words: Cell cycle distribution (propidium iodide flow cytometry) of serum starved bovine embryonic fibroblasts. The protocol:
(§1) Bovine embryonic fibroblasts (BEF) were isolated from the fetus with 3-5 cm crown-rump length. After two or three passages, cells were plated one million cells per plate (100 mm) with growth medium (DMEM) with 2 mM L-glutamine, 0.1 mM β-mercaptoethanol and 10% FBS. After 24 hours, cells were washed with PBS 3-5 times and then serum starvation medium with 0.5% FBS was added. In addition, cells were treated with serum starvation medium containing apoptosis inhibitors such as a2-macroglobulin (0.7 pM), N-acetylcysteine (1 mM) and glutathione (2 mM). Cells were treated with serum starvation with or without apoptosis inhibitors for 5 or 10 days. Then cells were trypsinized and counted.
(§2) Cells (1×10^6) were washed in 0.15 M NaCI, fixed in 70% ethanol, and stored at −20° C. overnight or until ready to be analyzed. For analysis, cells were centrifuged, rinsed with PBS, resuspended in 500 μl of a 0.05 mg/ml propidium iodide/0.1% Triton X-100/0.2 mg/ml RNase A solution, and incubated for a minimum of 30 minutes at room temperature in the dark. Cells were analyzed by flow cytometry to determine DNA content. Modfit LT™ (Verity Software House, Topsham, Me.) was used to model the cell cycle distribution within each sample.

Assay [4] has the same test system. In words: TUNEL assay (flow cytometry) of serum starved bovine embryonic fibroblasts. The settings on record: MAC 0.7 pM, NAC 1 mM, GSH 2 mM. The protocol: as §1
After counting, cells were fixed and stained according to protocols with the APO-BRDU kit (Phoenix Flow Systems, San Diego, Calif.). Briefly, cells were fixed in 1% paraformaldehyde in PBS on ice for 15 minutes, washed in PBS, and fixed in 70% ethanol and stored at −20° C. until use. After removing the fixative, cells were washed twice and suspended in 50 μl of labeling solution containing Br-dUTP (bromolated deoxyuridine triphosphate) and TdT (terminal deoxynucleotidyl transferase) for 60 minutes at 37° C. TdT catalyzes the addition of Br-dUTP to the 3′-OH ends of DNA strand breaks in a template independent manner. To determine base line fluorescence, control cells were incubated without TdT. After rinsing, cells were incubated with an anti-BrdU monoclonal antibody conjugated to fluorescein for 30 minutes in the dark at room temperature; apoptotic cells which contain many free 3′-OH ends are intensely labeled, while non-apoptotic cells whose DNA is largely intact have little Br-dUTP incorporation and remain unlabeled. Following counterstaining with a propidium iodide/RNase A solution for 30 minutes in the dark, which allows simultaneous analysis of cell cycle position and apoptosis, cells were analyzed on a FACSCalibur™ flow cytometer (Becton Dickinson, San Jose, Calif.). Fluorescence emissions were measured at 582±21 nm for propidium iodide and 530±15 nm for fluorescein, without spectral compensation, after excitation at 488 nm by an argon-ion laser. For analysis, gates were set so that less than 2% of samples incubated without TdT were positive. Any event above this gate was deemed TUNEL positive for samples incubated with TdT.
For orientation: A flow cytometer gives signals particle by particle.

The test system of assay [5] is Porcine embryonic fibroblast (PEF). The assay can be described thus: Cell cycle distribution (propidium iodide flow cytometry) of serum starved porcine embryonic fibroblasts.
From the text: (§3) Porcine embryonic fibroblast (PEF) were isolated from day 25-28 fetuses according to the methods previously described (Hogan et al., 1994). Briefly, porcine fetuses of day 25-30 (day 0=estrus) were removed from the uterus and rinsed with PBS+penicillin/streptomycin solution (PBS/PS). Head, limbs and internal organs were removed, and the carcasses were minced with razor blades or ground using a syringe head until they were the consistency of sludge. Then these were trypsinized 2-3 times using 0.25% trypsin+EDTA for 20 minutes. The supernatant fraction was removed and centrifuged to collect the cells. The cells were plated using DMEM+10% fetal bovine serum (FBS) and cultured up to 80-90% confluency before further passage.
as §1, §2

The test system is the same in assay [6]. The assay can be described thus: TUNEL assay (flow cytometry) of serum starved porcine embryonic fibroblasts. The settings on record: serum starvation 5 days, MAC 0.7 pM, NAC 1 mM, GSH 2 mM, serum starved without inhibitor 26.50.
From the text: as §3, §1
After counting, cells were fixed and stained according to protocols with the APO-BRDU kit (Phoenix Flow Systems, San Diego, Calif.). […] To determine base line fluorescence, control cells were incubated without TdT. […] Following counterstaining with a propidium iodide/RNase A solution for 30 minutes in the dark, which allows simultaneous analysis of cell cycle position and apoptosis, cells were analyzed on a FACSCalibur™ flow cytometer (Becton Dickinson, San Jose, Calif.). Fluorescence emissions were measured at 582±21 nm for propidium iodide and 530±15 nm for fluorescein, without spectral compensation, after excitation at 488 nm by an argon-ion laser. […]

[7] abbreviates: addition during the starvation period.
Setting [8] is: serum starvation 5 days, MAC 0.7 pM, NAC 1 mM, GSH 2 mM.

Molecules are shown by their SMILES. Where a SMILES comes first, the peptide text is derived from it. [ ]: non-standard residue; d: D form. The star is where a group is joined. Sta = CC(C)C[C@H](N)[C@@H](O)CC(=O)O; Isovaleryl = CC(C)CC(=O)*

For the molecule `NCCc1ccc(S(=O)(=O)F)cc1` [AEBSF, 4-(2-aminoethyl)benzenesulfonyl fluoride], the “Effect on the number of PGCs, in words” value with porcine PGCs [1] is given as “positive effect”. In addition, in the assay on porcine PGCs [2], the “Normalized # of Colonies + SE” value worked out at 1.14 ± 0.07.

As for `COc1ccc(O)c(C(C)(C)C)c1` [BHA, butylated hydroxyanisole], the “Normalized # of Colonies + SE” value in the assay on porcine PGCs [1] is listed as 2.48 ± 0.27.

With `CC(C)(C)[N+]([O-])=Cc1ccccc1` [BPN, N-t-butyl-α-phenylnitrone], in the assay on porcine PGCs [1], the “Normalized # of Colonies + SE” value is 1.95 ± 0.17.

Regarding `CN/C(=N/CCSCc1nc[nH]c1C)NC#N` [CIM, cimetidine], the “Normalized # of Colonies + SE” value in the assay with porcine PGCs [1] is reported as 1.95 ± 0.05.

Turning to `N[C@@H](CCC(=O)N[C@@H](CS)C(=O)NCC(=O)O)C(=O)O` [GSH, glutathione], the “Proportion of cells going into G0, in words” value in assay [3] (setting [7]) and in assay [5] (setting [7]) was “did not affect the proportion of cells going into G0” each time. Besides, the “G2/M (%)” value in assay [3] (setting [8]) was found to be 10%; in assay [5] (setting [8]), 3%. Also, the entries for the “S (%)” value in assay [3] (setting [8]) and in assay [5] (setting [8]) were 4% and 2%, respectively. Further, the “G0/G1 (%)” value is 86% in assay [3] (serum starvation (0.5% FBS) 5 days, MAC 0.7 pM, NAC 1 mM, GSH 2 mM) and 95% in assay [5] (setting [8]). Besides, the “5-day Apoptosis (%)” value in assay [4] (serum starvation 5 days, serum starved without inhibitor 15.0) was determined as 1.5%; in assay [6], 0.12%. For the same molecule, the “10-day Apoptosis (%)” value in assay [4] (serum starvation 10 days, serum starved without inhibitor 20.4) is recorded as 0.8%.

On to `CC(C)CC(=O)N[C@H](C(=O)N[C@H](C(=O)N[C@@H](CC(C)C)[C@@H](O)CC(=O)N[C@@H](C)C(=O)N[C@@H](CC(C)C)[C@@H](O)CC(=O)O)C(C)C)C(C)C` [PA, pepstatin A] (Isovaleryl-VV[Sta]A[Sta]-OH), for which, in the assay with porcine PGCs [2], the “Normalized # of Colonies + SE” value was 0.85 ± 0.13.

Turning to `Cc1ccc(S(=O)(=O)N[C@@H](CCCCN)C(=O)CCl)cc1` [TLCK, Nα-p-tosyl-L-lysine chloromethyl ketone], the “Effect on the number of PGCs, in words” value with porcine PGCs [1] was “positive effect”. In addition, the “Normalized # of Colonies + SE” value in the assay on porcine PGCs [2] turned out to be 1.21 ± 0.10.

Values taken from patent US6635802B1, “Nuclear transfer using cells cultured in serum starvation media containing apoptosis inhibitors” (The Texas A&M University System, priority 2000, dated 2003).
